# Results: patent US20220175779A1, “COMPOUNDS AGAINST CANCER BEARING TYROSINE KINASE INHIBITOR RESISTANT EGFR MUTATIONS” (Board of Regents, The University of Texas System, priority 2019, published 2022)
# How the values were obtained:
# [1] = system: EGFR G719X/T790M; assay: In vitro sensitivity of T790M acquired with an exon 18 point mutation; format: cell-based; conditions: T790M acquired with an exon 18 point mutation (G719X/T790M)
# Procedure: Thus, in certain aspects, the subject is determined to not have a mutation at EGFR C797 and/or T790, such as C797S and/or T790M. […] However, in certain aspects, L858R/T790M/C797S, Exon 19 deletion/T790M/C797s, and exon 20 insertions+ C797S or T790M mutants are resistant to EGFR TKIs.
# [2] = target: T1, Ba/F3 cells expressing EGFR A767insASV (Homo sapiens, UniProt P00533, DUP767-769, cells depend on it); assay: Cell viability (Cell Titer Glo), Ba/F3 cells expressing A767insASV; format: cell-based; conditions: 72 hours of treatment, read-out: IC50 values, nM Average
# T1 construct: A767insASV|N/A|N/A|Addgene #32066
# Procedure: Cell viability was determined by the Cell Titer Glo assay.
# Briefly, stable Ba/F3 cell lines were generated by retroviral transduction of Ba/F3 cell line for 12 hours. […] Three days after transduction, 2 μg/ml puromycin (Invitrogen) was added to the RPMI media. Cell lines were then grown in the absence of IL-3 for two weeks and cell viability was assessed every three days using the Cell Titer Glo assay (Progema).
# Briefly, 2000-3000 cells per well were plated in 384-well plates (Greiner Bio-One) in technical triplicate. Cells were treated with seven different concentrations of tyrosine kinase inhibitors or vehicle alone at a final volume of 40 μL per well. After 3 days, 11 μL of Cell Titer Glo was added to each well. Plates were shaken for 15 minutes, and bioluminescence was determined using a FLUOstar OPTIMA multi-mode micro-plate reader (BMG LABTECH). Bioluminescence values were normalized to DMSO treated cells, and normalized values were plotted in GraphPad Prism using non-linear regression fit to normalized data with a variable slope.
# T1 sequence (P00533 with tags, fused parts or gaps DUP767-769): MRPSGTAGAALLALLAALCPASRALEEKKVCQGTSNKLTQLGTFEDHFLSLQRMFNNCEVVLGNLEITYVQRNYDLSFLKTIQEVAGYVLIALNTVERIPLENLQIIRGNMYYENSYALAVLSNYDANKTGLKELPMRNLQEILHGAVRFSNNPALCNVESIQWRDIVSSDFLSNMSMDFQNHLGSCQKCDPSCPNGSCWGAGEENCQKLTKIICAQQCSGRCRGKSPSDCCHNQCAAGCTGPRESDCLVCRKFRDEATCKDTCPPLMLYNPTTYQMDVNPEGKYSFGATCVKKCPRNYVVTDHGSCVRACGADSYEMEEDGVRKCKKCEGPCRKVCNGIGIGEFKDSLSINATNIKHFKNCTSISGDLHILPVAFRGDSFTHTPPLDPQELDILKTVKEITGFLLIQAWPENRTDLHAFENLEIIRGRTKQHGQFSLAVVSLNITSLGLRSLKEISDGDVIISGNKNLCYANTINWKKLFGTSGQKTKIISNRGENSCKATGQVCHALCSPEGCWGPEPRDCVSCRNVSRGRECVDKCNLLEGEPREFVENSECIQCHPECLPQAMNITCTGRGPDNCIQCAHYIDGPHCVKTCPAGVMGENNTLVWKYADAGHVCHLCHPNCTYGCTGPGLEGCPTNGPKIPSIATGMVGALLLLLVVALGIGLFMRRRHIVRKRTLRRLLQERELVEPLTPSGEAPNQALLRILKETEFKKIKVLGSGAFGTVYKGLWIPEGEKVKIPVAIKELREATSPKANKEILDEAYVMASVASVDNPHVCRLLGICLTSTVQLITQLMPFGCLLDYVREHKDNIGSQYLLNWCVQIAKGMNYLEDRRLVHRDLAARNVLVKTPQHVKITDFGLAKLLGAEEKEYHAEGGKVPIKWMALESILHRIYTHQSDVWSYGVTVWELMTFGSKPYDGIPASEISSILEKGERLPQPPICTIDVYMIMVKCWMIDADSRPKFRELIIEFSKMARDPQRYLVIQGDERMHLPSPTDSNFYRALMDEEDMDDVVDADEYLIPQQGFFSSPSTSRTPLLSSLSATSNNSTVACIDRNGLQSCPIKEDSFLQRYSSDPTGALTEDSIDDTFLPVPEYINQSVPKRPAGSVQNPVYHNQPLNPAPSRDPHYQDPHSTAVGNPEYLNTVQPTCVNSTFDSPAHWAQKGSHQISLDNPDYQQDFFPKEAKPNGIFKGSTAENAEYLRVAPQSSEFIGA
compound,measurement,setting,value
"C=CC(=O)N1CCC(Oc2cc3c(Nc4ccc(Cl)c(Cl)c4F)ncnc3cc2OC)CC1 [Poziotinib, 1-[4-[4-(3,4-dichloro-2-fluoroanilino)-7-methoxyquinazolin-6-yl]oxypiperidin-1-yl]prop-2-en-1-one]",sensitivity in vitro,[1],remain sensitive
same,GI50,[2],1.62 nM
